According to patent US9795607B2, “Substituted pyrrolopyrimidine compounds, compositions thereof, and methods of treatment therewith” (Signal Pharmaceutical, LLC, priority 2013, dated 2017):

test system: Triple negative breast cancer cell line CAL51; assay: Cell Titer Glo proliferation assay, CAL51; format: cell-based; conditions: Homo sapiens, CAL-51; CAL51 cell proliferation (Table 1); read-out: Act. Level
Protocol: Cell Titer Glo Proliferation Assay.
Triple negative breast cancer cell line CAL51 was purchased from DSMZ. […] Allcell lines were maintained in growth media consisting of 90% high glucose Dulbecco's Modified Eagle Medium or RPMI1640 (Invitrogen), 10% fetal bovine serum (Hyclone), and 2 mM L-glutamine (Invitrogen). […] After overnight culture, compound stock (30 mM) was diluted serially in DMSO, further diluted in growth media, and was added to each well as a 10× concentrated solution in a volume of 11 μL, mixed, and allowed to incubate with cells. The compound vehicle (DMSO) was maintained at a final concentration of 0.2% in all wells. After 72 h, 100 μL of Cell Titer Glo solution (Promega) was added to each well of the 96-well plate. The plate was placed on a shaker for 2 minutes. After 10 minutes incubation, the luminescence signal was detected with Envision microplate reader (Perkin Elmer).

Row | IC50 [nM] | Structure (SMILES)
1 | < 100 | COc1cc(C(=O)N(C)C)ccc1Nc1nc(OC(C)C)c2c(-c3ccnc(F)c3)c[nH]c2n1 [Example 403, 4-(5-(2-fluoropyridin-4-yl)-4-isopropoxy-7H-pyrrolo[2,3-d]pyrimidin-2-ylamino)-3-methoxy-N,N-dimethylbenzamide]
2 | < 100 | CNC(=O)c1ccc(-c2c[nH]c3nc(Nc4ccc(C(=O)NC)cc4Cl)nc(OC)c23)cc1 [Example 428, 3-chloro-4-(4-methoxy-5-(4-(methylcarbamoyl)phenyl)-7H-pyrrolo[2,3-d]pyrimidin-2-ylamino)-N-methylbenzamide]
3 | < 100 | COc1cc(C(=O)N(C)C)ccc1Nc1nc(OC)c2c(-c3cc(C)nc(F)c3)c[nH]c2n1 [Example 418, 4-(5-(2-fluoro-6-methylpyridin-4-yl)-4-methoxy-7H-pyrrolo[2,3-d]pyrimidin-2-ylamino)-3-methoxy-N,N-dimethylbenzamide]
4 | 100 to 400 | COc1nc(Nc2ccc(C(=O)N(C)C)cc2C)nc2[nH]cc(-c3ccc4nc(C)n(C)c4c3)c12 [Example 407, 4-(5-(1,2-dimethyl-1H-benzo[d]imidazol-6-yl)-4-methoxy-7H-pyrrolo[2,3-d]pyrimidin-2-ylamino)-N,N,3-trimethylbenzamide]
5 | 1000 to 10000 | COc1nc(Nc2ccc(C(=O)N(C)C)cc2C)nc2[nH]cc(-c3ccc(S(C)(=O)=O)cc3)c12 [Example 411, 4-(4-methoxy-5-(4-(methylsulfonyl)phenyl)-7H-pyrrolo[2,3-d]pyrimidin-2-ylamino)-N,N,3-trimethylbenzamide]
6 | 100 to 400 | COc1cc(C(=O)N(C)C)ccc1Nc1nc(OC)c2c(-c3ccc4c(C)noc4c3)c[nH]c2n1 [Example 408, 3-methoxy-4-(4-methoxy-5-(3-methylbenzo[d]isoxazol-6-yl)-7H-pyrrolo[2,3-d]pyrimidin-2-ylamino)-N,N-dimethylbenzamide]
7 | 400 to 1000 | COc1cc(C(=O)NC2COC2)ccc1Nc1nc(OC)c2c(-c3ccnnc3)c[nH]c2n1 [Example 405, 3-methoxy-4-(4-methoxy-5-(pyridazin-4-yl)-7H-pyrrolo[2,3-d]pyrimidin-2-ylamino)-N-(oxetan-3-yl)benzamide]

Continued, compound first:

Row | Structure (SMILES) | IC50 [nM]
8 | CNC(=O)c1ccc(Nc2nc(NC3CCOCC3)c3c(-c4ccc5nc(C)oc5c4)c[nH]c3n2)c(Cl)c1 [Example 430, 3-chloro-N-methyl-4-(5-(2-methylbenzo[d]oxazol-6-yl)-4-(tetrahydro-2H-pyran-4-ylamino)-7H-pyrrolo[2,3-d]pyrimidin-2-ylamino)benzamide] | < 100
9 | CNC(=O)c1ccc(-c2c[nH]c3nc(Nc4ccc(C(=O)NC)cc4Cl)nc(NC4CCOCC4)c23)cc1 [Example 433, 3-chloro-N-methyl-4-(5-(4-(methylcarbamoyl)phenyl)-4-(tetrahydro-2H-pyran-4-ylamino)-7H-pyrrolo[2,3-d]pyrimidin-2-ylamino)benzamide] | < 100
10 | COc1cc(C(=O)NC2COC2)ccc1Nc1nc(OC)c2c(-c3ccc4[nH]c(C)nc4c3)c[nH]c2n1 [Example 404, 3-methoxy-4-(4-methoxy-5-(2-methyl-1H-benzo[d]imidazol-5-yl)-7H-pyrrolo[2,3-d]pyrimidin-2-ylamino)-N-(oxetan-3-yl)benzamide] | 100 to 400

same assay, conditions: Homo sapiens, CAL-51; CAL51 cell proliferation, Cell Titer Glo; read-out: Act. Level

Row | IC50 [nM] | Structure (SMILES)
11 | 100 to 400 | COc1cc(C(=O)NC2COC2)ccc1Nc1nc(OC)c2c(-c3ccnc(F)c3)c[nH]c2n1 [Example 381, 4-(5-(2-fluoropyridin-4-yl)-4-methoxy-7H-pyrrolo[2,3-d]pyrimidin-2-ylamino)-3-methoxy-N-(oxetan-3-yl)benzamide]
12 | < 100 | COc1cc(C(=O)N(C)C)ccc1Nc1nc(OC)c2c(-c3ccncc3)c[nH]c2n1 [Example 392, 3-methoxy-4-(4-methoxy-5-(pyridin-4-yl)-7H-pyrrolo[2,3-d]pyrimidin-2-ylamino)-N,N-dimethylbenzamide]
13 | < 100 | COc1cc(-c2c[nH]c3nc(Nc4ccc(C(=O)NC5COC5)cc4OC)nc(OC)c23)ccn1 [Example 389, 3-methoxy-4-(4-methoxy-5-(2-methoxypyridin-4-yl)-7H-pyrrolo[2,3-d]pyrimidin-2-ylamino)-N-(oxetan-3-yl)benzamide]
14 | < 100 | COc1cc(C(=O)NC2COC2)ccc1Nc1nc(OC)c2c(-c3ccnc(C)c3)c[nH]c2n1 [Example 383, 3-methoxy-4-(4-methoxy-5-(2-methylpyridin-4-yl)-7H-pyrrolo[2,3-d]pyrimidin-2-ylamino)-N-(oxetan-3-yl)benzamide]
15 | 100 to 400 | COc1cc(C(=O)NC2COC2)ccc1Nc1nc(OC)c2c(-c3ccc4c(C)noc4c3)c[nH]c2n1 [Example 380, 3-methoxy-4-(4-methoxy-5-(3-methylbenzo[d]isoxazol-6-yl)-7H-pyrrolo[2,3-d]pyrimidin-2-ylamino)-N-(oxetan-3-yl)benzamide]
16 | 100 to 400 | COc1cc(C(=O)NC2COC2)ccc1Nc1nc(OC)c2c(-c3ccncc3)c[nH]c2n1 [Example 347, 3-methoxy-4-(4-methoxy-5-(pyridin-4-yl)-7H-pyrrolo[2,3-d]pyrimidin-2-ylamino)-N-(oxetan-3-yl)benzamide]
17 | 100 to 400 | COc1ccc(-c2c[nH]c3nc(Nc4ccc(C(=O)N(C)C)cc4C)nc(OC)c23)cc1 [Example 391, 4-(4-methoxy-5-(4-methoxyphenyl)-7H-pyrrolo[2,3-d]pyrimidin-2-ylamino)-N,N,3-trimethylbenzamide]
18 | 400 to 1000 | COc1nc(Nc2ccc(C(=O)N(C)C)cc2C)nc2[nH]cc(-c3cnn(C)c3)c12 [Example 398, 4-(4-methoxy-5-(1-methyl-1H-pyrazol-4-yl)-7H-pyrrolo[2,3-d]pyrimidin-2-ylamino)-N,N,3-trimethylbenzamide]
19 | 1000 to 10000 | CNC(=O)c1ccc(Nc2nc(OC3CC3)c3c(-c4ccn(C)n4)c[nH]c3n2)c(OC)c1 [Example 218, 4-(4-cyclopropoxy-5-(1-methyl-1H-pyrazol-3-yl)-7H-pyrrolo[2,3-d]pyrimidin-2-ylamino)-3-methoxy-N-methylbenzamide]
20 | < 100 | COc1cc(C(=O)NC2COC2)ccc1Nc1nc(OC)c2c(-c3cc(C)nc(C)c3)c[nH]c2n1 [Example 384, 4-(5-(2,6-dimethylpyridin-4-yl)-4-methoxy-7H-pyrrolo[2,3-d]pyrimidin-2-ylamino)-3-methoxy-N-(oxetan-3-yl)benzamide]

The next lines start with the compound.

Row | Structure (SMILES) | IC50 [nM]
21 | COc1cc(C(=O)NC2CN(C)C2)ccc1Nc1nc(OC(C)C)c2c(-c3ccc4nc(C)oc4c3)c[nH]c2n1 [Example 356, 4-(4-isopropoxy-5-(2-methylbenzo[d]oxazol-6-yl)-7H-pyrrolo[2,3-d]pyrimidin-2-ylamino)-3-methoxy-N-(1-methylazetidin-3-yl)benzamide] | < 100
22 | COc1cc(C(=O)NC2CN(C)C2)ccc1Nc1nc(OC2CC2)c2c(-c3ccc4nc(C)oc4c3)c[nH]c2n1 [Example 363, 4-(4-cyclopropoxy-5-(2-methylbenzo[d]oxazol-6-yl)-7H-pyrrolo[2,3-d]pyrimidin-2-ylamino)-3-methoxy-N-(1-methylazetidin-3-yl)benzamide] | < 100
23 | COc1cc(C(=O)NC2CN(C)C2)ccc1Nc1nc(OC(C)(C)C)c2c(-c3ccc4nc(C)oc4c3)c[nH]c2n1 [Example 354, 4-(4-tert-butoxy-5-(2-methylbenzo[d]oxazol-6-yl)-7H-pyrrolo[2,3-d]pyrimidin-2-ylamino)-3-methoxy-N-(1-methylazetidin-3-yl)benzamide] | < 100
24 | CNC(=O)c1ccc(-c2c[nH]c3nc(Nc4ccc(C(=O)NC5CN(C)C5)cc4OC)nc(OC(C)(C)C)c23)cc1 [Example 355, 4-(4-tert-butoxy-5-(4-(methylcarbamoyl)phenyl)-7H-pyrrolo[2,3-d]pyrimidin-2-ylamino)-3-methoxy-N-(1-methylazetidin-3-yl)benzamide] | < 100
25 | CNC(=O)c1ccc(-c2c[nH]c3nc(Nc4ccc(C(=O)NC5CN(C)C5)cc4OC)nc(O[C@H]4CCOC4)c23)cc1 [Example 375, (S)-3-methoxy-N-(1-methylazetidin-3-yl)-4-(5-(4-(methylcarbamoyl)phenyl)-4-(tetrahydrofuran-3-yloxy)-7H-pyrrolo[2,3-d]pyrimidin-2-ylamino)benzamide] | 400 to 1000
26 | CNC(=O)c1ccc(-c2c[nH]c3nc(Nc4ccc(C(=O)NC5COC5)cc4OC)nc(OCCOC)c23)cc1 [Example 373, 3-methoxy-4-(4-(2-methoxyethoxy)-5-(4-(methylcarbamoyl)phenyl)-7H-pyrrolo[2,3-d]pyrimidin-2-ylamino)-N-(oxetan-3-yl)benzamide] | 100 to 400
27 | COc1cc(C(=O)NC2COC2)ccc1Nc1nc(OC2CC2)c2c(-c3ccc4nc(C)oc4c3)c[nH]c2n1 [Example 369, 4-(4-cyclopropoxy-5-(2-methylbenzo[d]oxazol-6-yl)-7H-pyrrolo[2,3-d]pyrimidin-2-ylamino)-3-methoxy-N-(oxetan-3-yl)benzamide] | 100 to 400
28 | CNC(=O)c1ccc(Nc2nc(OC3CCCC3)c3c(-c4cccc(N(C)C)c4)c[nH]c3n2)c(OC)c1 [Example 322, 4-(4-(cyclopentyloxy)-5-(3-(dimethylamino)phenyl)-7H-pyrrolo[2,3-d]pyrimidin-2-ylamino)-3-methoxy-N-methylbenzamide] | 400 to 1000
29 | CNC(=O)c1ccc(-c2c[nH]c3nc(Nc4ccc(C(=O)NC5COC5)cc4OC)nc(OC4CC(F)(F)C4)c23)cc1 [Example 345, 4-(4-(3,3-difluorocyclobutoxy)-5-(4-(methylcarbamoyl)phenyl)-7H-pyrrolo[2,3-d]pyrimidin-2-ylamino)-3-methoxy-N-(oxetan-3-yl)benzamide] | < 100
